Assay results taken from EP4775208A1, “USE OF PRMT5 INHIBITOR IN TREATMENT OF TUMORS OR CANCERS” (Apeiron Therapeutics (Hong Kong) Ltd., priority 2023, dated 2025).

Key:
[1] = system: HCT-116 MTAP(-/-) deficient cells; experiment: Inhibition of proliferation of HCT-116 MTAP(-/-) deficient cells (Cell-Titer Glo); assay type: cell-based; details: Homo sapiens, HCT-116, 192 h, 8 days
Description: Test 1: Compound's inhibitory activity on proliferation of HCT-116 MTAP(-/-) deficient cells.
Materials and Cells: HCT-116 MTAP(-/-) deficient cells obtained from Kyinno Bio (China); RPMI-1640 medium, fetal bovine serum, and penicillin-streptomycin purchased from Thermo Fisher Scientific (America); 384-well plates from PerkinElmer (America); Cell-Titer Glo assay kit from Promega (America).
Cell Culture: HCT116 MTAP(-/-) deficient cells were cultured in RPMI 1640 medium containing 10% fetal bovine serum and 1% penicillin-streptomycin at 37°C, 5% CO2. Only cells in logarithmic growth phase were used for experiments.
(§1) Cell Proliferation Inhibition Assay: The compound's inhibitory activity on HCT-116 MTAP(-/-) deficient cells was assessed using the Cell-Titer Glo assay kit. Adjusting cell concentration, 40 µL was seeded into a 384-well plate and cultured overnight at 37°C, 5% CO2. Each well received 40 nL of the compound, achieving concentrations from 0 to 10,000 nM (starting concentration 10,000 nM, 3-fold dilution, 10 points), with 0.1% DMSO. The cell plate was incubated for 8 days at 37°C, 5% CO2. Cell-Titer Glo reagent (40 µL) was added to measure cell viability.

[2] = system: HCT-116 MTAP wild-type cells; experiment: Inhibition of proliferation of HCT-116 MTAP wild-type cells (Cell-Titer Glo); assay type: cell-based; details: Homo sapiens, HCT-116, 192 h, 8 days
Description: Test 2: Compound's inhibitory activity on proliferation of HCT-116 MTAP wild-type cells.
Materials and Cells: HCT-116 MTAP wild-type cells obtained from Kyinno Bio (China); RPMI-1640 medium, fetal bovine serum, and penicillin-streptomycin purchased from Thermo Fisher Scientific (America); 384-well plates from PerkinElmer (America); Cell-Titer Glo assay kit from Promega (America).
Cell Culture: HCT116 MTAP wild-type cells were cultured in RPMI 1640 medium containing 10% fetal bovine serum and 1% penicillin-streptomycin at 37°C, 5% CO2. Only cells in logarithmic growth phase were used for experiments.
as §1, with “MTAP wild-type” for “MTAP(-/-) deficient”

SMILES	IC50 [1]	IC50 [2]
Cc1ncc(-c2ccc3c(c2)C(C)OC[C@H]3N(C)C(=O)c2ccc3nc(N)c4cncn4c3c2)cn1 (stereo partly drawn) [Example 21, 4-amino-N-methyl-N-((4S)-1-methyl-7-(2-methylpyrimidin-5-yl)isochroman-4-yl)imid azo[1,5-a]quinoxaline-8-carboxamide]	14.8 nM	2130 nM
CN(C(=O)c1ccc2nc(N)c3cncn3c2c1)[C@@H]1CCc2cc(C(F)(F)F)ncc21 [Example 23, (R)-4-amino-N-methy 1-N-(3-(trifluoromethy 1)-6,7-dihydro-5H-cyclopenta[c]pyridin-7-yl)imidazo[1,5-a]quinox aline-8-carboxamide]	120 nM	> 10000 nM
CN(C(=O)c1cc2c(cn1)nc(N)c1cncn12)[C@@H]1CCc2cc(C(F)(F)F)ncc21 [Example 24, (R)-4-amino-N-methy 1-N-(3-(trifluoromethy 1)-6,7-dihydro-5H-cyclopenta[c]pyridin-7-yl)imidazo[1,5-a]pyrido [3,4-e]pyrazine-8-carb oxamide]	148 nM	> 10000 nM
CN(C(=O)c1ccc2nc(N)c3cncn3c2c1)[C@@H]1CCOc2cc(C(F)(F)F)ccc21 [Example 25, (R)-4-amino-N-methy 1-N-(7-(trifluoromethy 1)chroman-4-yl)imida zo[1,5-a]quinoxaline-8-carboxamide]	177 nM	> 10000 nM
CN(C(=O)c1ccc2nc(N)c3cncn3c2c1)[C@@H]1COc2cc(C(F)(F)F)ncc21 [Example 26, (S)-4-amino-N-methy 1-N-(6-(trifluoromethy 1)-2,3-dihydrofuro[3,2-c]pyridin-3-yl)imidaz o[1,5-a]quinoxaline-8-carboxamide]	67.7 nM	> 10000 nM
CN(C(=O)c1cc2c(cc1Cl)nc(N)c1cncn12)[C@@H]1COc2cc(C(F)(F)F)ccc21 [Example 27, (S)-4-amino-7-chloro-N-methyl-N-(6-(trifluoromethyl)-2,3-dihydrobenzofuran-3-yl)imi dazo[1,5-a]quinoxaline-8-carboxamide]	4.4 nM	842 nM
CN(C(=O)c1ccc2nc(N)c3cncn3c2c1)[C@@H]1COc2cc(S(C)(=O)=O)ccc21 [Example 28, (S)-4-amino-N-methy 1-N-(6-(methylsulfony 1)-2,3-dihydrobenzofuran-3-yl)imidazo[1,5-a]quinoxaline-8-carbo xamide]	321 nM	> 10000 nM
CN(C(=O)c1ccc2nc(N)c3cncn3c2n1)[C@@H]1COc2cc(C(F)(F)F)ccc21 [Example 30, (S)-6-amino-N-methy 1-N-(6-(trifluoromethy 1)-2,3-dihydrobenzofuran-3-yl)imidazo[1,5-a]pyrido[3,2-e]pyrazine-2-carboxamide]	2090 nM	> 10000 nM
CN(C(=O)c1cc2c(cn1)nc(N)c1cncn12)[C@@H]1COc2cc(C(F)(F)F)ncc21 [Example 31, (S)-4-amino-N-methy 1-N-(6-(trifluoromethy 1)-2,3-dihydrofuro[3,2-c]pyridin-3-yl)imidaz o[1,5-a]pyrido[3,4-e]p yrazine-8-carboxamide]	297 nM	> 10000 nM
C[C@H]1OC[C@@H](N(C)C(=O)c2ccc3nc(N)c4cncn4c3c2)c2cnc(C(F)(F)F)cc21 [Example 32, 4-amino-N-methyl-N-((1R,4S)-1-methyl-7-(trifluoromethyl)-3,4-dihydro-1H-pyrano[4,3-c]pyridin-4-yl)imidazo[1,5-a]quinoxaline-8-carboxamide]	25.7 nM	1410 nM
Cc1cc(C(=O)N(C)[C@@H]2COc3cc(C(F)(F)F)ccc32)cc2c1nc(N)c1cncn12 [Example 37, (S)-4-amino-N,6-dime thyl-N-(6-(trifluoromethyl)-2,3-dihydrobenzofuran-3-yl)imidazo[1 ,5-a]quinoxaline-8-car boxamide]	> 3000 nM	> 10000 nM
CN(C(=O)c1ccc2nc(N)c3cc(F)cn3c2c1)[C@@H]1COc2cc(C(F)(F)F)ccc21 [Example 42, (S)-4-amino-2-fluoro-N-methyl-N-(6-(trifluoromethyl)-2,3-dihydrobenzofuran-3-yl)pyrr olo[1,2-a]quinoxaline-8-carboxamide]	660 nM	5460 nM
CN(C(=O)c1cc2c(cc1F)nc(N)c1cncn12)[C@@H]1COc2cc(-c3cscn3)ccc21 [Example 46, (S)-4-amino-7-fluoro-N-methyl-N-(6-(thiazol-4-yl)-2,3-dihydrobenzofuran-3-yl)imidaz o[1,5-a]quinoxaline-8-carboxamide]	52.2 nM	> 10000 nM
CN(C(=O)c1ccc2nc(N)c3nncn3c2c1)[C@@H]1COc2cc(C(F)(F)F)ccc21 [Example 48, (S)-4-amino-N-methy 1-N-(6-(trifluoromethy 1)-2,3-dihydrobenzofuran-3-yl)-[1,2,4]triazo lo[4,3-a]quinoxaline-8-carboxamide]	> 3000 nM	> 3000 nM
CN(C(=O)c1ccc2nc(N)n3cncc3c2c1)[C@@H]1COc2cc(C(F)(F)F)ccc21 [Example 49, (S)-5-amino-N-methy 1-N-(6-(trifluoromethy 1)-2,3-dihydrobenzofuran-3-yl)imidazo[1,5-c]quinazoline-9-carbo xamide]	589 nM	> 10000 nM
CC1OC[C@@H](N(C)C(=O)c2cc3c(cn2)nc(N)c2cncn23)c2ccc(C(F)(F)F)cc21 (stereo partly drawn) [Example 50, 4-amino-N-methyl-N-((4S)-1-methyl-7-(trifluoromethyl)isochroman-4-yl)imidazo[1,5-a]pyrido[3,4-e]pyrazine-8-carboxamide]	4.2 nM	196 nM
CN(C(=O)c1ccc2nc(N)c3cncn3c2c1)[C@H]1COc2cc(C(F)(F)F)ccc21 [Example 51, (R)-4-amino-N-methy 1-N-(6-(trifluoromethy 1)-2,3-dihydrobenzofuran-3-yl)imidazo[1,5-a]quinoxaline-8-carbo xamide]	213 nM	5860 nM
CN(C(=O)c1ccc2nc(N)c3cncn3c2c1)[C@@H]1COc2cc(CF)ccc21 [Example 52, (S)-4-amino-N-(6-(fluoromethyl)-2,3-dihydrobenzofuran-3-yl)-N-methylimidazo[1,5-a] quinoxaline-8-carbox amide]	123 nM	> 10000 nM
CN(C(=O)c1ccc2nc(N)c3cncn3c2c1)[C@@H]1COc2cc(C(N)=O)ccc21 [Example 53, (S)4-amino-N-(6-carbamoyl-2,3-dihydrobenzofuran-3-yl)-N-met hylimidazo[1,5-a]quin oxaline-8-carboxamide]	> 3000 nM	> 10000 nM
CN(C(=O)c1ccc2nc(N)c3cncn3c2c1)[C@@H]1COc2cc(N)ccc21 [Example 54, (S)-4-amino-N-(6-amino-2,3-dihydrobenzof uran-3-yl)-N-methyli midazo[1,5-a]quinoxa line-8-carboxamide]	2500 nM	> 10000 nM
CN(C(=O)c1cc2c(cc1F)nc(N)c1cncn12)[C@@H]1COc2cc(OC(F)(F)F)ccc21 [Example 57, (S)-4-amino-7-fluoro-N-methyl-N-(6-(trifluoromethoxy)-2,3-dihydrobenzofuran-3-yl)i midazo[1,5-a]quinoxa line-8-carboxamide]	10.5 nM	1870 nM
CN(C(=O)c1ccc2nc(N)c3nnnn3c2c1)[C@@H]1COc2cc(C(F)(F)F)ccc21 [Example 58, (S)-4-amino-N-methyl-N-(6-(trifluoromethyl)-2,3-dihydrobenzofuran-3-yl)tetrazolo[1,5-a]quinoxaline-8-carboxamide]	> 3000 nM	> 10000 nM
Nc1nc2cc(F)c(C(=O)N(C3CC3)C3CCOc4cc(-c5cncc(C(F)(F)F)c5)cnc43)cc2n2cncc12 (centres unmarked) [Example 59, 4-amino-N-cyclopropyl-7-fluoro-N-(7-(5-(trifluoromethyl)pyridin-3-yl)-3,4-dihydro-2H-pyrano[3,2-b]pyridin-4-yl)imidazo [1,5-a]quinoxaline-8-carboxamide]	711 nM	> 10000 nM
CN(C(=O)c1cc2c(cc1F)nc(N)c1cncn12)[C@@H]1CCOc2cc(C(F)(F)F)ccc21 [Example 60, (R)-4-amino-7-fluoro-N-methyl-N-(7-(trifluoromethyl)chroman-4-yl)imidazo[1,5-a]qui noxaline-8-carboxamide]	66.8 nM	7070 nM
CC1OC[C@@H](N(C)C(=O)c2cc3c(cc2Cl)nc(N)c2cncn23)c2ccc(F)cc21 (stereo partly drawn) [Example 61, 4-amino-7-chloro-N-( (4S)-7-fluoro-1-methylisochroman-4-yl)-N-methylimidazo[1,5-a] quinoxaline-8-carbox amide]	7.7 nM	882 nM
